Assay results published in ChEMBL document CHEMBL1201862, “PubChem BioAssay data set” (2004).
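Interpolation was linear, between the two tested concentrations surrounding the appropriate level; five concentrations were tested over 48 hours in 96-well plates. The concentration for 50% growth inhibition is given as GI50.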 Active and inactive are the calls of the source. Rule as the data show it: active = GI50 up to about 1.1 µM and inactive = higher.

How the values were obtained:
Test in all cases: NCI-60 cell line screen, 48 h
[1] = tested on: ACHN
[2] = tested on: HCT-116
[3] = tested on: HCT-15
[4] = tested on: HOP-92
[5] = tested on: HT-29
[6] = tested on: LXFL 529
[7] = tested on: NCI-H460
[8] = tested on: OVCAR-8
[9] = tested on: RPMI-8226
[10] = tested on: RXF 393
[11] = tested on: SF-539
[12] = tested on: SK-MEL-28
[13] = tested on: SK-OV-3
[14] = tested on: SN12C
[15] = tested on: SNB-19
[16] = tested on: UO-31
[17] = tested on: BT-549
[18] = tested on: DU-145
[19] = tested on: MDA-MB-435
[20] = tested on: NCI/ADR-RES

Measured: GI50

COc1c(O)c2c3c(cc(C)cc3c1C(C)C)OC2
inactive: [1] > 100 µM | [2] > 100 µM | [4] > 100 µM | [5] > 100 µM | [6] > 100 µM | [7] > 100 µM | [8] > 100 µM | [9] > 100 µM | [10] > 100 µM | [11] > 100 µM | [12] > 100 µM | [13] > 100 µM | [14] > 100 µM | [15] > 100 µM | [16] > 100 µM
> 100 µM: [3]

CC1=C(c2cc(C(=O)Nc3ccc(Cl)c(Cl)c3)nc(N)n2)Sc2ccccc2N1
inactive: [1] > 100 µM | [2] > 100 µM | [4] > 100 µM | [5] > 100 µM | [6] > 100 µM | [7] > 100 µM | [8] > 100 µM | [9] > 100 µM | [10] 89.7 µM | [11] > 100 µM | [12] > 100 µM | [13] > 100 µM | [14] > 100 µM | [15] > 100 µM | [16] > 100 µM
> 100 µM: [3]

COC(=O)c1ccccc1NCc1cc(O)ccc1O
18.8 µM: [3]
inactive: [1] 16.2 µM | [17] 2.71 µM | [18] 50.8 µM | [2] 19.5 µM | [4] 17.7 µM | [5] 21.8 µM | [6] 17.5 µM | [19] 17.8 µM | [7] 30.1 µM | [20] 19.2 µM | [8] 18.1 µM | [9] 10.5 µM | [10] 15.9 µM | [11] 17.7 µM | [12] 19.1 µM | [13] > 100 µM | [14] 18.6 µM | [15] 39 µM | [16] 17.5 µM

c1ccc2c(c1)OCCOCCOc1ccccc1OCCO2
inactive: [1] 51.9 µM | [2] 40.5 µM | [4] 51.5 µM | [5] 33.3 µM | [6] 68.5 µM | [7] 36.3 µM | [8] 78 µM | [9] 22.3 µM | [10] 60.1 µM | [11] > 100 µM | [12] > 100 µM | [13] > 100 µM | [14] 76 µM | [15] 64.6 µM | [16] 30 µM
43.9 µM: [3]

CCN(CC)/C(=C\Cl)Nc1ccccn1.[O-][Cl+3]([O-])([O-])O
inactive: [1] > 100 µM | [2] > 100 µM | [4] > 100 µM | [5] > 100 µM | [6] > 100 µM | [7] > 100 µM | [8] > 100 µM | [9] > 100 µM | [10] > 100 µM | [11] > 100 µM | [12] > 100 µM | [13] > 100 µM | [14] > 100 µM | [15] > 100 µM | [16] > 100 µM
> 100 µM: [3]

C/C(=N\NC(=O)c1ccccc1O)c1cccc(/C(C)=N/NC(=O)c2ccccc2O)n1
inactive: [1] 4.27 µM | [17] > 39.4 µM | [18] 13.3 µM | [4] 10.9 µM | [5] 8.61 µM | [6] 2.22 µM | [19] 41.8 µM | [7] 6.71 µM | [20] 27.6 µM | [8] 2.13 µM | [9] 14.7 µM | [10] 8.55 µM | [13] 4.12 µM | [14] 6.07 µM
7.55 µM: [3]

CCOC1=C2C(=O)OC(=O)C2C2CCCCC2=C1 (stereo not given)
> 100 µM: [3]
inactive: [2] > 100 µM | [4] > 100 µM | [5] > 100 µM | [6] > 100 µM | [7] > 100 µM | [8] > 100 µM | [9] > 100 µM | [10] > 100 µM | [11] > 100 µM | [12] > 100 µM | [13] > 100 µM | [14] > 100 µM | [15] > 100 µM | [16] > 100 µM

CC(=O)Oc1c(C)c(-c2ccccc2)c(C)c(-c2ccccc2)c1C(=S)c1ccccc1
> 100 µM: [3]
inactive: [1] > 100 µM | [2] > 100 µM | [4] > 100 µM | [5] > 100 µM | [6] > 100 µM | [7] > 100 µM | [8] > 100 µM | [9] 70.8 µM | [10] > 100 µM | [11] > 100 µM | [12] > 100 µM | [13] > 100 µM | [14] > 100 µM | [15] > 100 µM | [16] > 100 µM

COc1cc2c(c(OC)c1OC)-c1ccc(SC)c(=O)cc1C(CC(=O)Oc1ccc(F)cc1)C2 (stereo not given)
active: [1] 0.18 µM | [2] 0.0891 µM | [5] 0.164 µM | [6] 0.31 µM | [7] 0.253 µM | [8] 0.333 µM | [9] 0.296 µM | [10] 0.0365 µM | [11] 0.117 µM | [12] 0.48 µM | [13] 0.028 µM | [14] 0.367 µM | [15] 0.255 µM | [16] 0.817 µM
inactive: [4] 1.21 µM
0.26 µM: [3]

CC(C)Cn1cnc2c(Sc3c([N+](=O)[O-])ncn3C)nc(N)nc21
inactive: [1] > 63.8 µM | [17] 42.5 µM | [18] 28.5 µM | [2] > 60.1 µM | [4] 14.9 µM | [5] > 100 µM | [6] > 100 µM | [19] 37.5 µM | [7] > 63 µM | [20] > 100 µM | [8] > 61.4 µM | [9] > 52.7 µM | [10] > 56.1 µM | [11] > 23.7 µM | [12] > 60.7 µM | [13] > 100 µM | [14] > 64.6 µM | [15] > 100 µM | [16] > 38 µM
> 59.8 µM: [3]

O=C(N/C(=C\c1ccc(/C=C(\NC(=O)c2ccccc2)c2nc3cc(Cl)ccc3[nH]2)cc1)c1nc2cc(Cl)ccc2[nH]1)c1ccccc1
21.4 µM: [3]
inactive: [1] 26.9 µM | [2] 17.7 µM | [4] 35.1 µM | [5] 26.3 µM | [6] 22.9 µM | [7] 29.7 µM | [8] 27.7 µM | [9] 3.99 µM | [10] 13.4 µM | [11] 20.6 µM | [12] 17.5 µM | [13] > 100 µM | [14] 30.1 µM | [15] 51.9 µM | [16] 25.2 µM

O=C1C2CCN(CC2)C1CN1CCOCC1 (stereo not given)
2.18 µM: [3]
inactive: [1] 2.01 µM | [17] 2.28 µM | [18] 6.47 µM | [2] 1.87 µM | [4] 1.9 µM | [5] 7.73 µM | [6] 2 µM | [19] 15.5 µM | [7] 17.7 µM | [20] 1.96 µM | [8] 5.02 µM | [9] 2.13 µM | [10] 2.25 µM | [11] 15.4 µM | [12] 3.79 µM | [13] 17.2 µM | [14] 4.05 µM | [15] 18.7 µM | [16] 3.84 µM

O=C(CO)C1CC2C=CC1C2 (stereo not given)
inactive: [1] > 100 µM | [2] > 100 µM | [4] > 100 µM | [5] > 100 µM | [6] > 100 µM | [7] > 100 µM | [8] > 100 µM | [9] > 100 µM | [10] > 100 µM | [11] > 100 µM | [12] > 100 µM | [13] > 100 µM | [14] > 100 µM | [15] > 100 µM | [16] > 100 µM
> 100 µM: [3]

Cc1cccc(C)c1NC(=O)CCCC(=O)C(C#N)c1ccccc1 (stereo not given)
inactive: [1] > 100 µM | [2] > 100 µM | [4] > 100 µM | [5] > 10 µM | [6] > 100 µM | [7] > 10 µM | [8] > 10 µM | [9] > 100 µM | [10] > 100 µM | [11] > 10 µM | [12] > 100 µM | [13] 91 µM | [14] > 10 µM | [15] > 10 µM | [16] > 100 µM
> 10 µM: [3]

COc1cc2c(cc1OC)[Se]c1cc(OC)c(OC)cc1[Se]2
inactive: [1] > 10 µM | [2] > 10 µM | [4] 69 µM | [5] 6.81 µM | [6] > 10 µM | [7] > 10 µM | [8] > 10 µM | [9] > 10 µM | [10] 15.1 µM | [11] 90.8 µM | [12] > 10 µM | [13] > 10 µM | [14] > 10 µM | [15] > 10 µM | [16] > 10 µM
5.3 µM: [3]

Cc1cc(CS(=O)(=O)/C=C/c2ccccc2[N+](=O)[O-])c(CS(=O)(=O)/C=C/c2ccccc2[N+](=O)[O-])cc1C
inactive: [1] 34.4 µM | [17] 7.41 µM | [18] 56.2 µM | [2] 37 µM | [4] 33.2 µM | [5] > 61.7 µM | [6] > 100 µM | [19] > 41.9 µM | [7] 33.8 µM | [20] 53.5 µM | [8] 24.1 µM | [9] 9.42 µM | [10] 10.3 µM | [11] 14.4 µM | [12] 68.7 µM | [13] 24 µM | [14] 52.6 µM | [15] 28.1 µM | [16] > 82 µM
> 33 µM: [3]
